Measured values from BindingDB's records for doi:10.1016/j.bmcl.2011.12.067 (Dalian University of Technology, 2012).
pIC50: −log10 of the molar value.

What follows are compounds tested against Epidermal growth factor receptor (Homo sapiens, UniProt P00533) (assay: Inhibition of wild-type EGFR expressed using baculovirus expression system by ELISA).
Chain of Epidermal growth factor receptor (P00533 whole entry): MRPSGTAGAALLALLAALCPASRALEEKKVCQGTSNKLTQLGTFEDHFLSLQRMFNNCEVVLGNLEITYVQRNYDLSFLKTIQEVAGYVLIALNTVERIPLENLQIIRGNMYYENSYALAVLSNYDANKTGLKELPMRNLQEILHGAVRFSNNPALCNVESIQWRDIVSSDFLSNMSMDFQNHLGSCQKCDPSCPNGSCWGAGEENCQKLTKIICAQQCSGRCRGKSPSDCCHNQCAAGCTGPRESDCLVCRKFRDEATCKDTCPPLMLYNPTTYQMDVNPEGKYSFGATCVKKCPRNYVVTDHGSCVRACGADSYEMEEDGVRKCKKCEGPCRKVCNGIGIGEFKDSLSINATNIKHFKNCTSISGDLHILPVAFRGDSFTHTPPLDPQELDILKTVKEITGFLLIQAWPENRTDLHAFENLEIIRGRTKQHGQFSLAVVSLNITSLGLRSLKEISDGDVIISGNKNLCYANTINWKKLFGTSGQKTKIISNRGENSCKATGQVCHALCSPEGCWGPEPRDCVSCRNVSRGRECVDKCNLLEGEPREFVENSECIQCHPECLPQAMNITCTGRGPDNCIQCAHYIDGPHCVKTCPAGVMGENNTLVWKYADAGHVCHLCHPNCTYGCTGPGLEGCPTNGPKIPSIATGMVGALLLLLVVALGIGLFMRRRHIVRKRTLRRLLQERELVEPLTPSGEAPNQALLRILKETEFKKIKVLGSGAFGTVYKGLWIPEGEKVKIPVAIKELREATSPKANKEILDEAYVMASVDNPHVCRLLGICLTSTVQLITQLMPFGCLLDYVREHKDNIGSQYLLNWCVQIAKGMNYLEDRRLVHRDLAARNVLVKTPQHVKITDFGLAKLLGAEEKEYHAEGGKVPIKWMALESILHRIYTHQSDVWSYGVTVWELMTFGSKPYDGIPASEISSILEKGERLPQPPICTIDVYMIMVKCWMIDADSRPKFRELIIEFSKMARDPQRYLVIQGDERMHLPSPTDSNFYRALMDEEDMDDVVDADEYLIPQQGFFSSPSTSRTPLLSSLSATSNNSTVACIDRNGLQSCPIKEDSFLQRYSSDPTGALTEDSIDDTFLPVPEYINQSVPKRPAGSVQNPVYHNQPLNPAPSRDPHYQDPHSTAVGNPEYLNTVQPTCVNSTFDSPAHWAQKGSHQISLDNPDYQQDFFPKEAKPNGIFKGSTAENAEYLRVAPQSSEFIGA

pIC50, < 4.00:
CNc1nc(N=NCc2ccc(OC)cc2)nc(Nc2ccccc2)n1
Cn1cc(NC(=O)CN=O)c(=O)n1-c1ccccc1
CNc1nc(N=NCc2ccc(O)cc2)nc(Nc2ccccc2)n1
